{
  "source": "patent US5756510A",
  "about": "“Benzamide analogs useful as PARP (ADP-ribosyltransferase, ADPRT) DNA repair enzyme inhibitors” (Newcastle University Ventures Limited, priority 1994, dated 1998)",
  "key": {"[1]": {"target": "T1, PARP (Mus musculus, UniProt P11103)", "T1 construct": "endogenous in cells; host or cells: L1210 murine leukaemia cells, permeabilised by hypotonic buffer and cold shock", "T1 sequence (P11103 whole entry)": "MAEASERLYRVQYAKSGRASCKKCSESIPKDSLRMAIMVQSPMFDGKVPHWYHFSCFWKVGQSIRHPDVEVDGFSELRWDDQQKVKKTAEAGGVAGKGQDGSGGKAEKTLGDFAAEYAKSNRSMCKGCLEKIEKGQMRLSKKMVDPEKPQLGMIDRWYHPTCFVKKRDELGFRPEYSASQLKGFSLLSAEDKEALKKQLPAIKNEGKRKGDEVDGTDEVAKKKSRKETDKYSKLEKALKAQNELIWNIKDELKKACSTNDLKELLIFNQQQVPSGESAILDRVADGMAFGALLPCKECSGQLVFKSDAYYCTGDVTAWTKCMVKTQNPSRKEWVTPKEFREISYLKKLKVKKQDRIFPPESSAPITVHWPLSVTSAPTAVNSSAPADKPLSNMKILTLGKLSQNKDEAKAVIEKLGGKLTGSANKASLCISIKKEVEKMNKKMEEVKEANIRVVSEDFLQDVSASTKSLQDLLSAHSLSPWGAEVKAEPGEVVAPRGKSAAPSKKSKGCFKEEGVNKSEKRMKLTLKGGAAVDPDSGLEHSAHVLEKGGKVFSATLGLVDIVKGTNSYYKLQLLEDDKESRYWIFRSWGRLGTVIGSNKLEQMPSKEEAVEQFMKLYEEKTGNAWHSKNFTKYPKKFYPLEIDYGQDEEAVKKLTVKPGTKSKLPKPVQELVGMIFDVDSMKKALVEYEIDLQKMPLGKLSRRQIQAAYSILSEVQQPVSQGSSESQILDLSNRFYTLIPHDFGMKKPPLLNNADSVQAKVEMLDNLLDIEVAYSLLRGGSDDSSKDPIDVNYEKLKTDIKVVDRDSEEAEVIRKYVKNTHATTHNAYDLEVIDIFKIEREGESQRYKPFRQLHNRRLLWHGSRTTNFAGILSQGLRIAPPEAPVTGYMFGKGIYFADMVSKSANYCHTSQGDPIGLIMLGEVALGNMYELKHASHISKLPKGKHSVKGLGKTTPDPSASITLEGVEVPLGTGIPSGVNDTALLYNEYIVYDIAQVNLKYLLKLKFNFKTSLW", "assay": "PARP inhibition assay ([32P]-NAD incorporation into TCA-precipitated poly(ADP-ribose) in permeabilised L1210 cells, oligonucleotide activated)", "assay_type": "biochemical, L1210 murine leukaemia cells", "description": "In principle, the PARP assay used relies upon activating endogenous PARP (as hereinafter described) in cells containing exogenous [^32 P]-NAD^+ introduced therein by suspending the cells in a solution of [^32 P]-NAD^+ to which they have been rendered permeable in an initial pretreatment step. The poly(ADP-ribose) which is then synthesised by the enzyme can be precipitated by trichloracetic acid (TCA) and the amount of radio-labelled ^32 p incorporated therein measured, e.g. using a scintillation counter, to give a measure of the activity of the PARP under the particular conditions of the experiment. By repeating the experiment following the same procedure, and under the same conditions, in the presence of each compound to be tested the reduction in enzyme activity, representative of the inhibitory effect of the test compound, can then be ascertained from the reduction, if any, of the amount of [^32 P] measured in the TCA precipitated poly(ADP-ribose).\nThus, with a range of different compounds a set of comparative values for inhibitory activity can be obtained.\nIn practice, L1210 murine leukaemia cells were used as the source of the PARP enzyme after being rendered permeable to exogenous [^32 P]NAD by exposure to hypotonic buffer and cold shock. […] This oligonucleotide sequence snaps back on itself to form a double-stranded molecule with a single blunt end and provides an effective substrate for activation of PARP.\nThe experimental protocol adopted, in which a synthetic oligonucleotide as mentioned above is introduced as a specific activator of PARP, discriminates between PARP and other mono-ADP-ribosyltransferases in the cells.\nThe oligonucleotide having the palindromic sequence […], synthesised by conventional means, was vacuum dried and stored as pellets in a freezer. Before use, it was made up to 200 μg/ml in 10 mM Tris/HCl, pH 7.8, with each pellet being dissolved completely in […] of buffer. The solution was then heated to 60° C. in a water bath for 15 minutes, and allowed to cool slowly to ensure correct reannealing. After adding 9.5 ml of buffer, the concentration was checked by measuring the optical density of a diluted sample at 260 nm. The main solution was then diluted to a concentration of 200 μg/ml and stored in 500 μl aliquots in a freezer, ready for use.\nThe L1210 cells used as the source of the PARP enzyme were maintained as a suspension culture in RPMI medium+10% foetal bovine serum+glutamine and antibiotics (penicillin and streptomycin). HEPES and sodium bicarbonate were also added, and the cells were seeded in 100 ml of medium such that there would be a concentration of approximately 8×10^5 /ml at the time of carrying out an assay.\nThe solubility of the compound was then checked by adding a quantity of the DMSO solution to a quantity of the isotonic buffer, in the required final proportions that were to be used in carrying out the assay, and after an interval the solution was examined under a microscope for any signs of crystals forming.\nA desired quantity of the cells, ascertained by counting with a haemocytometer, was then centrifuged (1500 rpm in a \"Europa\" model 24M centrifuge for 5 minutes), the supernatant removed, and the pellets obtained were resuspended in 20 ml Dul A at 4° C. before centrifuging again at 1500 rpm and 4° C. After again removing the supernatant, the cells were resuspended at a concentration of 3×10^7 cells/ml in ice cold hypotonic buffer and left for 30 minutes on ice. Nine volumes were then added of ice cold isotonic buffer, and the cells, now rendered permeable to exogenous NAD^+, were then used within the next hour for carrying out an assay."}, "[2]": {"system": "L1210 cells", "assay": "clonogenic survival assay with temozolomide (TM)", "details": "for DEF10 (TM): 16 hours, ± S.E.", "protocol": "(§1) Again using cultures of the murine leukaemia L1210 cell line, growth inhibition experiments were carried out to assess the cytostatic effects of the compounds and clonogenic survival assays were performed to assess cytotoxicity, especially in relation to use of the compounds in conjunction with DNA damaging cytotoxic agents such as cytotoxic antitumour drugs or high energy radiation.\nAfter 7-10 days colonies were stained with 0.5 mg/ml MTT and counted by eye on a gridded light box. Survival curves were plotted and typical DEF10 values obtained are hereinafter given in Table II (DEF10 being defined as the ratio of the concentration of TM that reduces survival to 10% divided by the concentration of TM that reduces survival to 10% in the presence of a fixed concentration of PARP inhibitor). Each DEF10 value in Table II represents the average ratio±S.E. (standard error) derived from the averaged 10% survival for TM alone (675±31 μM from 22 independent survival curves) divided by individual 10% survival values from at least 3 independent survival curves performed in the presence of a fixed concentration of inhibitor.\nFor NU1025 maximal potentiation of cytotoxicity was obtained by a concentration in the range of 50-100 μM, and was significant at doses as low as 10 μM."}, "[3]": {"system": "L1210 cells", "assay": "growth inhibition assay, alone or with temozolomide", "assay_type": "cell-based, murine", "details": "Mus musculus, L1210, 48 h", "protocol": "as §1\nAt this time one set of replicates would be counted using a Coulter counter (N0), and 48 hours later the remaining samples would be counted (N1). The percentage (%) growth inhibition of drug-treated samples could then be estimated. In drug combination experiments, where evidence of synergistic effects on cell growth or clonogenicity was being sought, a single, fixed concentration of a cytotoxic drug sample, e.g. temozolomide, would be taken as the control value."}, "[4]": {"assay": "in vitro", "details": "mouse, l1210 cells", "protocol": "as §1"}, "[5]": {"system": "L1210 cells", "assay": "repair of potentially lethal damage (PLD) after gamma ray irradiation", "assay_type": "cell-based, murine", "details": "8 Gray gamma ray; 10 mM 3AB or 200 μM NU1025", "protocol": "Repair of potentially lethal damage (PLD) occurs when cells are held in stationary-phase following initiation of PLD prior to allowing cell division to take place. In further typical experiments, L1210 cells were allowed to repair gamma ray PLD in the presence or absence of 3AB or NU1025 as follows. L1210 cells were maintained in culture until they had attained stationary phase (>10^6 cells/ml). They were diluted to […] in conditioned medium from stationary-phase cultures to prevent further cell division. Replicate 2 ml samples of cells in plastic bijoux were held on ice prior to and immediately following 8 Gray gamma ray irradiation. 1 ml of 3x final concentration of compounds 3AB or NU1025 made up in conditioned medium from stationary cultures was added (to give final concentrations of 10^6 cells/ml in 1% DMSO ±10 mM 3AB or 200 μM NU1025) and the cells were incubated at 37° C. for 0, 2 or 4 hours prior to resuspending in drug-free medium and seeding for colony formation. Unirradiated stationary phase cultures incubated at 37° C. for 0, 2 or 4 hours with 1% DMSO ±10 mM 3AB or 200 μM NU1025 were used as appropriate controls for determining relative cell survival. In the absence of PARP inhibitor cell survival increased with time allowed for PLD repair to take place. […]"}, "[6]": {"system": "DNA strand breaks in L1210 cells", "assay": "DNA strand break assay (alkaline elution)", "assay_type": "cell-based, murine", "details": "for effect on DNA strand break levels, compound alone: 24 hour incubation", "protocol": "as §1\nAll the compounds were tested for their ability to produce strand breaks when used alone."}, "[7]": {"assay": "half life of temozolomide in culture", "assay_type": "physicochemical"}, "[8]": {"system": "L1210 cells", "assay": "clonogenic survival assay, gamma ray irradiation", "assay_type": "cell-based, murine", "details": "200 μM", "protocol": "In other clonogenic survival assays gamma ray irradiation was used to damage the cells. Typically, L1210 cells (3 ml, 4×10^3 /ml in plastic bijoux bottles) were irradiated at 4° C. with varying doses of gamma rays in the presence or absence of 10 mM 3AB or 200 μM NU1057 and a final concentration of 2% DMSO. The cells were then incubated at 37° C. for 2 hours in the continued presence or absence of PARP inhibitor prior to seeding for colony formation."}, "[9]": {"details": "read-out: IC50 INHIBITOR + 100 μM TM (growth inhibition)"}, "[10]": {"details": "read-out: IC50 INHIBITOR ALONE (growth inhibition)"}},
  "data": [
    {"smiles": "NC(=O)c1cccc(N)c1", "note": "[3-aminobenzamide]", "values": [
      {"measurement": "inhibition at 10 µM", "setting": "[1]; read-out: % Inhibition (PARP)", "value": 36, "unit": "%"},
      {"measurement": "inhibition at 30 µM", "setting": "[1]; 30 μM, read-out: % Inhibition (PARP)", "value": 63, "unit": "%"},
      {"measurement": "inhibition at 100 µM", "setting": "[1]; 100 μM, read-out: % Inhibition (PARP)", "value": 79, "unit": "%"},
      {"measurement": "DEF10 (TM)", "setting": "[2]; 1 mM inhibitor", "value": "2.4 ± 0.3"},
      {"measurement": "DEF10 (TM)", "setting": "[2]; 5 mM inhibitor", "value": "4.1 ± 0.4"},
      {"measurement": "DEF10 (TM)", "setting": "[2]; 5 mM inhibitor, listed as 3AB", "value": "about 4"},
      {"measurement": "IC50", "setting": "[3]; [9]", "value": "2500 ± 100", "unit": "µM"},
      {"measurement": "IC50", "setting": "[3]; [10]", "value": "6700 ± 200", "unit": "µM"},
      {"measurement": "CC50 at 24 h", "setting": "[4]", "value": "14 ± 1", "unit": "mM"},
      {"measurement": "effect on PLD repair in words", "setting": "[5]", "value": "blocked this repair"},
      {"measurement": "concentration above which strand breakage with TM increases significantly", "setting": "[6]; 150 μM TM, 1 hour", "value": "> 5", "unit": "mM"},
      {"measurement": "effect on DNA strand break levels, compound alone", "setting": "[6]; 20 mM", "value": "no significant effect on DNA strand break levels"}
    ]},
    {"smiles": "Cn1nnc2c(C(N)=O)ncn2c1=O", "note": "[TM, temozolomide]", "values": [
      {"measurement": "half-life", "setting": "[7]", "value": "~40", "unit": "min"},
      {"measurement": "IC50", "setting": "[2]; Mus musculus, L1210, 16 h, read-out: LD50 of TM alone", "value": "251 ± 13", "unit": "µM"},
      {"measurement": "IC90", "setting": "[2]; Mus musculus, L1210, 16 h, read-out: concentration of TM alone that reduces survival to 10%", "value": "675 ± 31", "unit": "µM"},
      {"measurement": "cytotoxicity at 150 µM", "setting": "[2]; Mus musculus, L1210, read-out: reduction of survival", "value": "~30", "unit": "%"},
      {"measurement": "IC50", "setting": "[3]; read-out: IC50 of TM alone (inhibition of cell growth)", "value": "361 ± 25", "unit": "µM"},
      {"measurement": "minimal effective concentration", "setting": "[6]; Mus musculus, L1210, 1 h, read-out: lowest TM level with detectable changes in DNA strand break levels", "value": 150, "unit": "µM"},
      {"measurement": "rate of elution (DNA strand breakage) in words", "setting": "[6]; TM, 1 hour treatment", "value": "concentration-dependent increase in the rate of elution"}
    ]},
    {"smiles": "O=c1[nH]c(-c2ccc([N+](=O)[O-])cc2)nc2c(O)cccc12", "note": "[NU1057, 8-Hydroxy-2-(4-nitrophenyl)quinazolin-4-one]", "values": [
      {"measurement": "IC50", "setting": "[1]", "value": 230, "unit": "nM"},
      {"measurement": "PARP inhibitory activity in words", "setting": "[1]", "value": "potent PARP inhibitors"},
      {"measurement": "inhibition at 10 µM", "setting": "[1]; read-out: % Inhibition (PARP)", "value": 92, "unit": "%"},
      {"measurement": "potentiation of gamma ray cytotoxicity in words", "setting": "[8]", "value": "significant potentiation of gamma ray cytotoxicity"},
      {"measurement": "DEF10 (gamma ray cytotoxicity)", "setting": "[8]; 2% DMSO, 2 hours at 37° C.", "value": 1.1}
    ]},
    {"smiles": "Cc1nc2c(O)cccc2c(=O)[nH]1", "note": "[NU1025, 8-Hydroxy-2-methylquinazolin-4-[3H]-one]", "values": [
      {"measurement": "DEF10 (TM)", "setting": "[2]; 10 μM inhibitor", "value": "2.0 ± 0.2"},
      {"measurement": "DEF10 (TM)", "setting": "[2]; 100 μM inhibitor", "value": "5.1 ± 0.7"},
      {"measurement": "IC50", "setting": "[3]; [9]", "value": 40, "unit": "µM"},
      {"measurement": "IC50", "setting": "[3]; [10]", "value": 410, "unit": "µM"},
      {"measurement": "CC50 at 24 h", "setting": "[4]", "value": "1.6 ± 0.1", "unit": "mM"},
      {"measurement": "effect on PLD repair in words", "setting": "[5]", "value": "blocked this repair"},
      {"measurement": "effect on DNA strand break levels, compound alone", "setting": "[6]; 1 mM", "value": "no significant effect on DNA strand break levels"}
    ]}
  ]
}
